Our source for the inhibition and IC50 values is ChEMBL document CHEMBL5143559, “Discovery of highly potent SARS-CoV-2 Mpro inhibitors based on benzoisothiazolone scaffold” (Bioorg Med Chem Lett, 2022).

The target in experiment [1] is Replicase polyprotein 1ab (Severe acute respiratory syndrome coronavirus 2) (UniProt P0DTD1). Nature of the experiment: Inhibition of SARS-CoV-2 main protease using Mca-AVLQSGFRK(Dnp)K as substrate at 40 uM preincubated with enzyme for 10 mins followed by substrate addition and measured every 30 secs for 10 mins by fluorescence based analysis. The following applies: time 20.0 min.

Experiment [2] concerns the target T1, Replicase polyprotein 1ab (Severe acute respiratory syndrome coronavirus 2, UniProt P0DTD1). The experiment can be described thus: Inhibition of SARS-CoV-2 main protease using Mca-AVLQSGFRK(Dnp)K as substrate preincubated with enzyme for 10 mins followed by substrate addition and measured every 30 secs for 10 mins by fluorescence based analysis.
Experiment [3] addresses T1, Replicase polyprotein 1ab. The experiment can be described thus: Inhibition of SARS-CoV-2 RdRp.
Experiment [4] concerns the target Replicase polyprotein 1ab (Severe acute respiratory syndrome coronavirus 2) (UniProt P0DTD1). Nature of the experiment: Irreversible inhibition of SARS-CoV-2 main protease by fast dilution experiment based analysis.

Calls of active or inactive are those of the source. The rule behind the calls is not given here.

Turning to `O=C(Cn1sc2c(F)cccc2c1=O)Nc1ccccc1`, in experiment [1], the inhibition amounted to 99.5%. It took 328 nM to reach half-maximal inhibition in experiment [2] (IC50).
With `O=C(Nc1ccccc1)n1sc2cc(F)ccc2c1=O`, in experiment [1], the inhibition is 102%. Also, the half-maximal inhibitory concentration (IC50) worked out at 680 nM in experiment [2] and 15300 nM in experiment [3].
Turning to `COc1cccc(NC(=O)Cn2sc3cc(F)ccc3c2=O)c1`, in experiment [1], the inhibition worked out at 101%. Besides, in experiment [2], it took 150 nM to reach half-maximal inhibition (IC50).
On to `O=C(Cn1sc2cc(F)ccc2c1=O)Nc1cc(Cl)cc(Cl)c1`, for which the inhibition in experiment [1] amounted to 108%. For the same molecule, the half-inhibitory concentration (IC50) in experiment [2] is 190 nM.
For `COc1cccc2c(=O)n(CC(=O)Nc3ccccc3)sc12`, the inhibition in experiment [1] is -6.8%.
On to `O=C(Cn1sc2cc(F)ccc2c1=O)Nc1ccccc1`, for which the inhibition in experiment [1] was found to be 102%. Moreover, the IC50 in experiment [2] was 190 nM; in experiment [3], 6400 nM.
`O=C(Cn1sc2cccc(F)c2c1=O)Nc1ccccc1`: the inhibition result in experiment [4] was “Active”. In addition, the inhibition in experiment [1] amounted to 99.5%. In experiment [2], this molecule returned an IC50 of 117 nM.
For `COc1ccc2sn(CC(=O)Nc3ccccc3)c(=O)c2c1`, the inhibition in experiment [1] is 99.7%. The same molecule returned an IC50 in experiment [2] of 153 nM.
On to `O=c1c2ccc(F)cc2sn1CCCc1ccccc1`, for which the inhibition in experiment [1] stood at 102%. The molecule further yielded an IC50 in experiment [2] of 540 nM.
As for `O=C(Cn1sc2cc(F)ccc2c1=O)Nc1ccc(C(F)(F)F)cc1`, in experiment [1], the inhibition came out at 100%. Also, in experiment [2], it took 210 nM to reach half-maximal inhibition (IC50).
For the molecule `O=C(O)Cn1sc2cc(F)ccc2c1=O`, in experiment [1], the inhibition turned out to be 98.4%. The IC50 in experiment [2] worked out at 1570 nM.
Consider `O=C(Cn1sc2cc(F)ccc2c1=O)NCc1ccccc1`, for which, in experiment [1], the inhibition is 104%. In experiment [2], this molecule displayed an IC50 of 230 nM.
`Nc1cccc2sn(CC(=O)Nc3ccccc3)c(=O)c12`: the inhibition in experiment [1] stood at 99.4%. In addition, in experiment [2], the IC50 was determined as 1770 nM.
Turning to `CC(C)(C)c1ccc(NC(=O)Cn2sc3cc(F)ccc3c2=O)cc1`, the inhibition in experiment [1] is 99.9%. For the same molecule, in experiment [2], the IC50 stood at 310 nM.
The like results for `O=C(Cn1sc2cc(F)ccc2c1=O)NC1CCCC1` were, in that order, 95.5% and 400 nM.
`O=C(Cn1sc2cc(F)ccc2c1=O)NC1CCCCC1`: the inhibition in experiment [1] is 97.7%. The values for the half-maximal inhibitory concentration (IC50) in experiment [2] and in experiment [3] were 160 nM and 7900 nM, respectively.
As to `O=C(Cn1sc2cc(F)ccc2c1=O)Nc1cccc(Cl)c1`, the inhibition in experiment [1] turned out to be 95.5%. In experiment [2], this molecule yielded an IC50 of 140 nM.
For `O=C(Cn1sc2c(C(F)(F)F)cccc2c1=O)Nc1ccccc1`, in experiment [1], the inhibition was -7.6%.
As to `Nc1cccc2c(=O)n(CC(=O)Nc3ccccc3)sc12`, the inhibition in experiment [1] stood at 58.8%. In experiment [2], the half-inhibitory concentration (IC50) is 11000 nM.
The like results for `COc1ccc2c(=O)n(CC(=O)Nc3ccccc3)sc2c1` were, in that order, 99.7% and 287 nM.
`O=C(Cn1sc2cc(F)ccc2c1=O)Nc1cccc(C(F)(F)F)c1`: the inhibition in experiment [1] came to 98.9%. In addition, 250 nM corresponded to half-maximal inhibition in experiment [2] (IC50).
On the same counts, the results for `CCNC(=O)Cn1sc2cc(F)ccc2c1=O` are 102% and 380 nM.
As to `O=C(Cn1sc2cc(F)ccc2c1=O)Nc1ccccc1Cl`, the inhibition in experiment [1] amounted to 94%. In experiment [2], this molecule gave an IC50 of 190 nM.
On the same counts, the results for `O=C(Cn1sc2cc(F)ccc2c1=O)Nc1ccccc1C(F)(F)F` are 105% and 335 nM.
As for `O=C(Cn1[nH]c2cc(F)ccc2c1=O)Nc1ccccc1`, in experiment [1], the inhibition was determined as 26.3%.
For `COc1ccccc1NC(=O)Cn1sc2cc(F)ccc2c1=O`, in experiment [1], the inhibition amounted to 99.2%. Also, the half-maximal inhibitory concentration (IC50) in experiment [2] came out at 180 nM.
Turning to `Nc1ccc2c(=O)n(CC(=O)Nc3ccccc3)sc2c1`, the inhibition in experiment [1] was determined as 99.7%. In experiment [2], this molecule showed a concentration for half-maximal inhibition (IC50) of 443 nM.
Take `O=C(Cn1oc2cc(F)ccc2c1=O)Nc1ccccc1`: the inhibition in experiment [1] is 7%.
As for `O=C(Cn1sc2ccc(F)cc2c1=O)Nc1ccccc1`, in experiment [1], the inhibition was found to be 99.7%. Besides, in experiment [2], the IC50 was 287 nM.
As for `COc1ccc(NC(=O)Cn2sc3cc(F)ccc3c2=O)cc1`, the inhibition in experiment [1] turned out to be 99.3%. Also, in experiment [2], the midpoint of inhibition, the IC50, lay at 300 nM.
Turning to `Nc1ccc2sn(CC(=O)Nc3ccccc3)c(=O)c2c1`, the inhibition in experiment [1] came to 99.8%. Half-maximal inhibition in experiment [2] (IC50) required 416 nM.
For `O=C(Cn1sc2ccc(C(F)(F)F)cc2c1=O)Nc1ccccc1`, the inhibition in experiment [1] turned out to be 99.7%. The same molecule returned an IC50 in experiment [2] of 393 nM.
In the case of `O=C(Cn1c(=O)c2ccc(F)cc2[s+]1[O-])Nc1ccccc1` (stereo unspecified), the inhibition in experiment [1] amounted to 23.5%.
In the case of `O=C(Cn1sc2cccc(C(F)(F)F)c2c1=O)Nc1ccccc1`, the inhibition in experiment [1] came out at 99.7%. The same molecule gave an IC50 in experiment [2] of 224 nM.
Turning to `O=C(CN1C(=O)c2ccc(F)cc2S1(=O)=O)Nc1ccccc1`, in experiment [1], the inhibition is 18.3%.
On to `O=C(Cn1sc2cc(C(F)(F)F)ccc2c1=O)Nc1ccccc1`, for which the inhibition in experiment [1] is 100%. The same molecule came in with an IC50 in experiment [2] of 524 nM.
With `COc1cc(NC(=O)Cn2sc3cc(F)ccc3c2=O)cc(OC)c1`, in experiment [1], the inhibition is 96.7%. In experiment [2], this molecule displayed a concentration for half-maximal inhibition (IC50) of 120 nM.
Regarding `CC(C)(C)OC(=O)Cn1sc2cc(F)ccc2c1=O`, the inhibition in experiment [1] stood at 104%. In experiment [2], this molecule returned an IC50 of 220 nM.
Consider `COc1cccc2sn(CC(=O)Nc3ccccc3)c(=O)c12`, for which the inhibition in experiment [1] came to 99.6%. For the same molecule, the midpoint of inhibition in experiment [2], the IC50, lay at 334 nM.
Take `O=C(Cn1sc2cc(F)ccc2c1=O)Nc1ccc(Cl)cc1`: the inhibition in experiment [1] amounted to 95.7%. For the same molecule, the IC50 in experiment [2] was determined as 150 nM.
As for `CC(=O)NCn1sc2cc(F)ccc2c1=O`, the inhibition in experiment [1] worked out at 102%. It took 253 nM to reach half-maximal inhibition in experiment [2] (IC50).
For `O=c1[nH]sc2cc(F)ccc12`, in experiment [1], the inhibition turned out to be 106%. Moreover, in experiment [2], the IC50 came to 2290 nM.
The like results for `O=C(Cn1sc2cc(F)ccc2c1=O)NCCc1ccccc1` were, in that order, 100% and 388 nM.
Consider `O=C(Cn1sc2ccccc2c1=O)Nc1ccccc1`, for which, in experiment [1], the inhibition came to 99.7%. In experiment [2], this molecule came in with an IC50 of 165 nM.

The inhibition is the change of the read-out against control, counted positive when it falls. The term IC50 denotes the concentration that gives 50% inhibition.
